From PubChem BioAssay (NCI)
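Where inhibition never reached the appropriate level, the endpoint shown equals the highest concentration tested. Otherwise, values were interpolated linearly from a five-concentration, 48-hour dose response in 96-well plates. At the TGI there is no net growth.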

How the values were obtained:
Test in all cases: DTP human tumour cell line panel, 48 h
HCC-2998 colon = tested on: HCC-2998 colon
SN12C renal = tested on: SN12C renal
DMS 273 small cell lung = tested on: DMS 273 small cell lung
CCRF-CEM leukemia = tested on: CCRF-CEM leukemia
ACHN renal = tested on: ACHN renal
LXFL 529 NSCLC = tested on: LXFL 529 NSCLC
KM12 colon = tested on: KM12 colon
NCI-H23 lung = tested on: NCI-H23 lung
SNB-78 CNS = tested on: SNB-78 CNS
SR leukemia = tested on: SR leukemia
IGROV1 ovarian = tested on: IGROV1 ovarian
SNB-75 CNS = tested on: SNB-75 CNS
HT29 colon = tested on: HT29 colon
MOLT-4 leukemia = tested on: MOLT-4 leukemia
786-0 renal = tested on: 786-0 renal
M14 melanoma = tested on: M14 melanoma
RXF-631 renal = tested on: RXF-631 renal
OVCAR-8 ovarian = tested on: OVCAR-8 ovarian
COLO 205 colon = tested on: COLO 205 colon
K-562 leukemia = tested on: K-562 leukemia
HCT-116 colon = tested on: HCT-116 colon
OVCAR-4 ovarian = tested on: OVCAR-4 ovarian
SK-MEL-5 melanoma = tested on: SK-MEL-5 melanoma
SW-620 colon = tested on: SW-620 colon
SF-295 CNS = tested on: SF-295 CNS
A498 renal = tested on: A498 renal
CAKI-1 renal = tested on: CAKI-1 renal
SK-MEL-28 melanoma = tested on: SK-MEL-28 melanoma
EKVX NSCLC = tested on: EKVX NSCLC
NCI-H460 lung = tested on: NCI-H460 lung
M19-MEL melanoma = tested on: M19-MEL melanoma
OVCAR-3 ovarian = tested on: OVCAR-3 ovarian
NCI-H522 lung = tested on: NCI-H522 lung
HOP-92 NSCLC = tested on: HOP-92 NSCLC
XF 498 CNS = tested on: XF 498 CNS
SNB-19 CNS = tested on: SNB-19 CNS
UACC-62 melanoma = tested on: UACC-62 melanoma
SF-268 CNS = tested on: SF-268 CNS
OVCAR-5 ovarian = tested on: OVCAR-5 ovarian
TK-10 renal = tested on: TK-10 renal
SK-OV-3 ovarian = tested on: SK-OV-3 ovarian
MALME-3M melanoma = tested on: MALME-3M melanoma
A549 NSCLC = tested on: A549 NSCLC
HL-60(TB) leukemia = tested on: HL-60(TB) leukemia
DMS 114 small cell lung = tested on: DMS 114 small cell lung
UO-31 renal = tested on: UO-31 renal
NCI-H226 lung = tested on: NCI-H226 lung
DLD-1 colon = tested on: DLD-1 colon
UACC-257 melanoma = tested on: UACC-257 melanoma
SF-539 CNS = tested on: SF-539 CNS
RPMI-8226 leukemia = tested on: RPMI-8226 leukemia
SK-MEL-2 melanoma = tested on: SK-MEL-2 melanoma
RXF 393 renal = tested on: RXF 393 renal
HOP-62 NSCLC = tested on: HOP-62 NSCLC
KM20L2 colon = tested on: KM20L2 colon
LOX IMVI melanoma = tested on: LOX IMVI melanoma
U251 CNS = tested on: U251 CNS
HCT-15 colon = tested on: HCT-15 colon
HOP-18 NSCLC = tested on: HOP-18 NSCLC

Measured: TGI

CC(C)N(C(=O)C12C3C4C1C1C2C3C41I)C(C)C (stereo not given)
not listed: DLD-1 colon | UACC-257 melanoma | SF-539 CNS | RPMI-8226 leukemia | SK-MEL-2 melanoma | RXF 393 renal | HOP-62 NSCLC | KM20L2 colon | LOX IMVI melanoma | U251 CNS | HCT-15 colon | HOP-18 NSCLC
> 100 µM: all other assays above

C/C(=N/NC(=O)C[n+]1ccccc1)C(CN(CC(C)C)CC(C)C)C(=O)Nc1ccc(C)cc1C (stereo not given)
82.8 µM: UO-31 renal
92.9 µM: A498 renal
not listed: DMS 273 small cell lung | LXFL 529 NSCLC | KM12 colon | SNB-78 CNS | SNB-75 CNS | SF-295 CNS | CAKI-1 renal | OVCAR-3 ovarian | XF 498 CNS | NCI-H226 lung | LOX IMVI melanoma | U251 CNS | HCT-15 colon | HOP-18 NSCLC
> 100 µM: all other assays above

C#CCNC(=O)NCCCCC(NC(C)=O)C(=O)NCc1ccccc1 (stereo not given)
not listed: DMS 273 small cell lung | HL-60(TB) leukemia | SK-MEL-2 melanoma
> 100 µM: all other assays above

Cc1nc(-n2nc(-c3ccccc3)cc2-c2ccccc2)sc1C(=O)/C=C/c1ccc(Cl)c(Cl)c1
31.3 µM: OVCAR-8 ovarian
81.3 µM: OVCAR-4 ovarian
39.9 µM: HCT-15 colon
73.6 µM: SNB-78 CNS
78.7 µM: CAKI-1 renal
70.3 µM: KM20L2 colon
66.2 µM: OVCAR-5 ovarian
35.7 µM: SF-295 CNS
69.7 µM: CCRF-CEM leukemia
40.5 µM: M14 melanoma
48.2 µM: DLD-1 colon
21.6 µM: NCI-H522 lung
87.6 µM: NCI-H226 lung
19.9 µM: UACC-62 melanoma
44.5 µM: SF-539 CNS
42.1 µM: SNB-19 CNS
36.7 µM: HL-60(TB) leukemia
23.8 µM: U251 CNS
57.3 µM: SW-620 colon
20.8 µM: KM12 colon
44.3 µM: SN12C renal
23.9 µM: UO-31 renal
30.8 µM: XF 498 CNS
63.7 µM: K-562 leukemia
52.5 µM: MOLT-4 leukemia
76.8 µM: SR leukemia
54.2 µM: OVCAR-3 ovarian
27.5 µM: LOX IMVI melanoma
30 µM: IGROV1 ovarian
32 µM: LXFL 529 NSCLC
33.5 µM: 786-0 renal
not listed: SNB-75 CNS | HT29 colon | SK-MEL-5 melanoma | A498 renal | HOP-92 NSCLC | RPMI-8226 leukemia | HOP-18 NSCLC
> 100 µM: all other assays above
